Source: patent US20210253643A1, “HYDROPHOBIC BIOMOLECULE STABILIZING SCAFFOLD PEPTIDES AND METHODS OF MAKING AND USING SAME” (The University of British Columbia, priority 2018, published 2021)
No end group written: not given here.

Assays:
[1] = target: T1, photosynthetic bacterial reaction center (BRC) (Cereibacter sphaeroides, UniProt P0C0Y7+P0C0Y8+P0C0Y9); assay: Thermostability of the BRC complex (absorbance at 803 nm after incubation at 65° C.); type: physicochemical, Rhodobacter sphaeroides; conditions: 0.03% LDAO
T1 construct: placed on H from own knowledge of pIND4-RC1; made in house; host or cells: Rhodobacter sphaeroides RcX (ΔpuhA, ΔpufQBALMX, ΔrshI, ΔppsR), plasmid pIND4-RC1
Description: Reconstitution of the BRC in peptidiscs, low lipid nanodiscs, and styrene maleic acid nanoparticles: The purified BRC complex (1 mg/mL) was mixed at a 1:1.8 (μg/μg) ratio with NSPr followed by 10-fold dilution in Buffer A to decrease the LDAO concentration to 0.003%. For formation of low-lipid nanodiscs, the purified BRC complex was instead mixed at a 1:2 (mol/mol) ratio with MSP1D1 before dilution. Alternatively, an equivalent amount of BRC was diluted in Buffer A supplemented with 0.03% LDAO, 0.02% DDM, 0.1% SMA or 0.1% SDS as described. After incubation for 10 minutes on ice, aggregated proteins were removed by centrifugation (13,000×g, 10 min at 4° C.). […]
Absorbance spectroscopy: Absorption spectra were recorded using a Hitachi U-3010 spectrophotometer. A blank measurement was recorded in Buffer A(+0.03% LDAO for detergent purified BRC). Samples were incubated in a PCR thermocycler at the indicated temperature, and then measured at the desired time points in a quartz cuvette at room temperature. […]
The photosynthetic bacterial reaction center (BRC) from Rhodobacter sphaeroides was reconstituted into peptidiscs using NSPr. FIG. 21A illustrates the absorbance scans of the BRC (1 μM) in detergent solution (0.03% LDAO (lauryldimethylamine oxide)) and in peptidisc. Scans were normalized to the value measured at 803 nm (the absorbance peak of the accessory bacteriochlorophylls). […]

[2] = Peptide solubility by turbidity of peptide suspensions at 550 nm; conditions: for Solubility (/5): Experiment #2, score 1 to 5; for Solubility: Experiment #1, score 1 to 5, turbidity at 550 nm
Description: The solubility of the peptides was determined by measuring the turbidity of each of the peptide suspensions at 550 nm. The numbers 1 to 5 were used denote the degree of solubility, where 1 means poor solubility and 5 means high solubility.

membrane proteins = assay: Competition with equimolar NSPr-FAM during on-gel reconstitution of membrane proteins; type: biochemical; conditions: 0 no competition, 100 full competition
Description: (§1) Table 10 summarizes the biophysical, structural and experimental characteristics of the tested NSP peptide variants. […] The number of inter-helix salt bridges formed between the AH1 and AH2 regions for each of the tested amphipathic peptide variants was also determined.

[3] = tested on: membrane proteins MsbA and FhuA; assay: On-gel reconstitution efficiency of membrane proteins; type: biochemical, E. coli; design: key: 1 means poor reconstitution; 5 means efficient reconstitution
Description: Bands were visualized by Coomassie Blue G250 staining.
as §1

[4] = Experiment #1, score 1 to 5, on-gel, MsbA and FhuA

Row | Compound | Solubility (/5) [2] | other results
1 | CCCCCCCCCCCC[N+](C)(C)[O-] [LDAO, lauryldimethylamine oxide] | – | Time to full denaturation of BRC [1]: less than 4 minutes
2 | CC(C)C[C@H](NC(=O)[C@H](CCCCN)NC(=O)[C@H](C)NC(=O)[C@H](Cc1ccccc1)NC(=O)[C@H](Cc1ccc(O)cc1)NC(=O)[C@H](CC(=O)O)NC(=O)[C@H](CCCCN)NC(=O)[C@@H](NC(=O)[C@H](C)NC(=O)[C@H](CCC(=O)O)NC(=O)[C@H](CCCCN)NC(=O)[C@H](CC(C)C)NC(=O)[C@H](CCCCN)NC(=O)[C@H](CCC(=O)O)NC(=O)[C@H](C)NC(=O)[C@H](C)NC(=O)[C@@H]1CCCN1C(=O)[C@H](CC(=O)O)NC(=O)[C@H](Cc1c[nH]c2ccccc12)NC(=O)[C@H](Cc1ccccc1)NC(=O)[C@H](CCCCN)NC(=O)[C@H](C)NC(=O)[C@H](Cc1ccccc1)NC(=O)[C@H](Cc1ccc(O)cc1)NC(=O)[C@H](CC(=O)O)NC(=O)[C@H](CCCCN)NC(=O)[C@@H](NC(=O)[C@H](C)NC(=O)[C@H](CCC(=O)O)NC(=O)[C@H](CCCCN)NC(=O)[C@H](Cc1ccccc1)NC(=O)[C@H](CCCCN)NC(=O)[C@H](CCC(=O)O)NC(=O)[C@H](C)NC(=O)[C@H](Cc1ccccc1)NC(=O)[C@H](Cc1c[nH]cn1)NC(=O)[C@H](Cc1c[nH]cn1)NC(=O)[C@H](Cc1c[nH]cn1)NC(=O)[C@H](Cc1c[nH]cn1)NC(=O)[C@H](Cc1c[nH]cn1)NC(=O)[C@@H](N)Cc1c[nH]cn1)C(C)C)C(C)C)C(=O)N[C@@H](Cc1c[nH]c2ccccc12)C(=O)N[C@@H](CC(=O)O)C(=O)O [NSPr-6xHis, HHHHHH FAEKFKEAVKDYFAKFWD P AAEKLKEAVKDYFAKLWD] | 3 /5 | –
3 | CC(C)C[C@H](NC(=O)[C@H](CCCCN)NC(=O)[C@H](C)NC(=O)[C@H](Cc1ccccc1)NC(=O)[C@H](Cc1ccc(O)cc1)NC(=O)[C@H](CC(=O)O)NC(=O)[C@H](CCCCN)NC(=O)[C@@H](NC(=O)[C@H](C)NC(=O)[C@H](CCC(=O)O)NC(=O)[C@H](CCCCN)NC(=O)[C@H](CC(C)C)NC(=O)[C@H](CCCCN)NC(=O)[C@H](CCC(=O)O)NC(=O)[C@H](C)NC(=O)[C@H](C)NC(=O)[C@@H]1CCCN1C(=O)[C@H](CC(=O)O)NC(=O)[C@H](Cc1c[nH]c2ccccc12)NC(=O)[C@H](Cc1ccccc1)NC(=O)[C@H](CCCCN)NC(=O)[C@H](C)NC(=O)[C@H](Cc1ccccc1)NC(=O)[C@H](Cc1ccc(O)cc1)NC(=O)[C@H](CC(=O)O)NC(=O)[C@H](CCCCN)NC(=O)[C@@H](NC(=O)[C@H](C)NC(=O)[C@H](CCC(=O)O)NC(=O)[C@H](CCCCN)NC(=O)[C@H](Cc1ccccc1)NC(=O)[C@H](CCCCN)NC(=O)[C@H](CCC(=O)O)NC(=O)[C@H](C)NC(=O)[C@H](Cc1ccccc1)NC(=O)[C@@H](N)CS)C(C)C)C(C)C)C(=O)N[C@@H](Cc1c[nH]c2ccccc12)C(=O)N[C@@H](CC(=O)O)C(=O)O [NSPr-C, C FAEKFKEAVKDYFAKFWD P AAEKLKEAVKDYFAKLWD] | 5 | Solubility [2]: 5
4 | Ac-DWLKAFYDKVAEKLKEAAPDWFKAFYDKVAEKFKEAF-NH2 [Ac-NSP-NH2, Ac-DWLKAFYDKVAEKLKEAA P DWFKAFYDKVAEKFKEAF-NH2] | 1 | Competition peptide (% NSPr-FAM) (membrane proteins; Experiment #1, equimolar NSPr-FAM and variant): 10%; Competition NSPr-FAM (±10%) (membrane proteins; Experiment #2): 10%; Reconstitution Efficiency (/5) [3, 4]: 2 /5; Reconstitution Efficiency (/5) ([3]; Experiment #2, score 1 to 5): 2 /5; Solubility [2]: 1
5 | DWLKAFYDKVAEKLKEAAPDWFKAFYDKVAEKFKEAF [NSP, DWLKAFYDKVAEKLKEAA P DWFKAFYDKVAEKFKEAF] | 3 /5 | –
6 | FAAKFKEAVKDYFAKFWDPAAEKLAEAVADYFAALWD [3 SB Disruption H2, FAAKFKEAVKDYFAKFWD P AAEKLAEAVADYFAALWD] | 5 | –
7 | FADKFKDAVKEYFAKFWEPAADKLKDAVKEYFAKLWE [Neg Switch, FADKFKDAVKEYFAKFWE P AADKLKDAVKEYFAKLWE] | 4 /5 | –
8 | FAEAFKEAVKDYFAAFWDPAAEKLKEAVKDYFAKLWD [2 SB Disruption, FAEAFKEAVKDYFAAFWD P AAEKLKEAVKDYFAKLWD] | 5 | –
9 | FAEAFKEAVKDYFAKFWDPAAEKLKEAVKDYFAKLWD [1 SB Disruption, FAEAFKEAVKDYFAKFWD P AAEKLKEAVKDYFAKLWD] | 5 | –
10 | FAEKFKEAVKDYFAKFWD P AAEKLKEAVKDYFAKLWD-pyrenebutyric acid [NSPr-pyrene] | 5 | Reconstitution Efficiency (/5) [3, 4]: 4 /5; Reconstitution Efficiency (/5) ([3]; Experiment #2, score 1 to 5): 4 /5; Solubility [2]: 5
11 | FAEKFKEAVKDYFAKFWDGAAEKLKEAVKDYFAKLWD [NSPr-G, FAEKFKEAVKDYFAKFWD G AAEKLKEAVKDYFAKLWD] | – | Solubility [2]: 5
12 | FAEKFKEAVKDYFAKFWDPAAEKLKEAVKDYFAKLW [NSPr-36, FAEKFKEAVKDYFAKFWD P AAEKLKEAVKDYFAKLW] | 3 /5 | –
13 | FAEKFKEAVKPYFAKFWDPAAEKLKEAVKPYFAKLWD [NSPr-3P, FAEKFKEAVKPYFAKFWD P AAEKLKEAVKPYFAKLWD] | 5 | Solubility [2]: 5
14 | FAEKLKEAVKDYFAKLWDPFAEKLKEAVKDYFAKLWD [Peptide 2F-2F, FAEKLKEAVKDYFAKLWD P FAEKLKEAVKDYFAKLWD] | 4 /5 | –
15 | FAEKLKEAVKDYLAKFWDPAAEKLKEAVKDYFAKLWD [Peptide 2F-1F, FAEKLKEAVKDYLAKFWD P AAEKLKEAVKDYFAKLWD] | 5 | –
16 | FVEKFKEVAKDYFVKFWDPVVEKLKEVAKDYFVKLWD [Ala/Val Switch, FVEKFKEVAKDYFVKFWD P VVEKLKEVAKDYFVKLWD] | 5 | –
17 | Fam-FAEKFKEAVKDYFAKFWD P AAEKLKEAVKDYFAKLWD [NSPr-FAM] | – | Reconstitution Efficiency (/5) [3, 4]: 5; Reconstitution Efficiency (/5) ([3]; Experiment #2, score 1 to 5): 5

Now from value to compound, other results behind:

Row | Solubility (/5) [2] | Compound | other results
18 | 4 /5 | FAEKFKEAVKDQFAKFWDPAAEKLKEAVKDQFAKLWD [Tyr/Gln Switch, FAEKFKEAVKDQFAKFWD P AAEKLKEAVKDQFAKLWD] | –
19 | 4 /5 | FAEKFKEAVKDYFAKFWDGAAEKLKEAVKDYFAKLWD [Pro/Gly Switch, FAEKFKEAVKDYFAKFWD G AAEKLKEAVKDYFAKLWD] | –
20 | 4 /5 | FAEKFKEAVKDYFAKFWDPAAEKFKEAVKDYFAKLFD [Peptide 4F-3F, FAEKFKEAVKDYFAKFWD P AAEKFKEAVKDYFAKLFD] | –
21 | 4 /5 | FAEKFKEAVKDYFAKFWDPAAEKLKEAVKDYFAKFWD [Peptide 4F-2F, FAEKFKEAVKDYFAKFWD P AAEKLKEAVKDYFAKFWD] | –
22 | 4 /5 | FAEKFKEAVKDYFAKFWDPFAEKFKEAVKDYFAKFWD [Peptide 4F-4F, FAEKFKEAVKDYFAKFWD P FAEKFKEAVKDYFAKFWD] | –
23 | 5 | FAEKFKEAVKDYFAKLWDPAAEKLKEAVKDYFAKLWD [Peptide 3F-1F, FAEKFKEAVKDYFAKLWD P AAEKLKEAVKDYFAKLWD] | –
24 | 5 | FAERFREAVRDYFARFWDPAAERLREAVRDYFARLWD [Pos Switch, FAERFREAVRDYFARFWD P AAERLREAVRDYFARLWD] | –
25 | 4 /5 | WAEKFKEAVKDYWAKFWDPAAEKLKEAVKDYWAKLWD [Phe/Trp Switch, WAEKFKEAVKDYWAKFWD P AAEKLKEAVKDYWAKLWD] | –
26 | 4 /5 | YAEKFKEAVKDYFAKFYDPAAEKLKEAVKDYFAKLWD [Phe/Tyr Switch, YAEKFKEAVKDYFAKFYD P AAEKLKEAVKDYFAKLWD] | –
